Results from the NIST ThermoML archive (doi:10.1016/j.jct.2016.04.014).

Settings: Liquid, Vibrating tube method

CCO [ethanol]
Settings	mass density [kg/m3]
288.15 K, 100 kPa	793.7
288.15 K, 1000 kPa	794.4
288.15 K, 5000 kPa	797.6
288.15 K, 10000 kPa	801.5
288.15 K, 15000 kPa	805.3
288.15 K, 20000 kPa	808.9
288.15 K, 25000 kPa	812.4
288.15 K, 30000 kPa	815.7
288.15 K, 35000 kPa	819
288.15 K, 40000 kPa	822.1
288.15 K, 45000 kPa	825.1
288.15 K, 50000 kPa	828
288.15 K, 55000 kPa	830.7
288.15 K, 60000 kPa	833.3
293.15 K, 100 kPa	789.4
293.15 K, 1000 kPa	790.2
293.15 K, 5000 kPa	793.5
293.15 K, 10000 kPa	797.4
293.15 K, 15000 kPa	801.3
293.15 K, 20000 kPa	805
293.15 K, 25000 kPa	808.6
293.15 K, 30000 kPa	812
293.15 K, 35000 kPa	815.3
293.15 K, 40000 kPa	818.5
293.15 K, 45000 kPa	821.5
293.15 K, 50000 kPa	824.5
293.15 K, 55000 kPa	827.2
293.15 K, 60000 kPa	829.9
298.15 K, 100 kPa	785.2
298.15 K, 1000 kPa	785.9
298.15 K, 5000 kPa	789.3
298.15 K, 10000 kPa	793.4
298.15 K, 15000 kPa	797.3
298.15 K, 20000 kPa	801.1
298.15 K, 25000 kPa	804.8
298.15 K, 30000 kPa	808.3
298.15 K, 35000 kPa	811.7
298.15 K, 40000 kPa	814.9
298.15 K, 45000 kPa	818
298.15 K, 50000 kPa	821
298.15 K, 55000 kPa	823.8
298.15 K, 60000 kPa	826.5
303.15 K, 100 kPa	780.9
303.15 K, 101 kPa	780.83
303.15 K, 1000 kPa	781.6
303.15 K, 5000 kPa	785.1
303.15 K, 10000 kPa	789.3
303.15 K, 15000 kPa	793.3
303.15 K, 20000 kPa	797.2
303.15 K, 25000 kPa	801
303.15 K, 30000 kPa	804.6
303.15 K, 35000 kPa	808
303.15 K, 40000 kPa	811.3
303.15 K, 45000 kPa	814.5
303.15 K, 50000 kPa	817.5
303.15 K, 55000 kPa	820.3
303.15 K, 60000 kPa	823.1
308.15 K, 100 kPa	776.5
308.15 K, 1000 kPa	777.3
308.15 K, 5000 kPa	780.9
308.15 K, 10000 kPa	785.2
308.15 K, 15000 kPa	789.3
308.15 K, 20000 kPa	793.3
308.15 K, 25000 kPa	797.1
308.15 K, 30000 kPa	800.8
308.15 K, 35000 kPa	804.3
308.15 K, 40000 kPa	807.7
308.15 K, 45000 kPa	810.9
308.15 K, 50000 kPa	814
308.15 K, 55000 kPa	816.9
308.15 K, 60000 kPa	819.6
313.15 K, 100 kPa	772.1
313.15 K, 101 kPa	772.1
313.15 K, 1000 kPa	773
313.15 K, 5000 kPa	776.6
313.15 K, 10000 kPa	781
313.15 K, 15000 kPa	785.3
313.15 K, 20000 kPa	789.4
313.15 K, 25000 kPa	793.3
313.15 K, 30000 kPa	797
313.15 K, 35000 kPa	800.6
313.15 K, 40000 kPa	804.1
313.15 K, 45000 kPa	807.4
313.15 K, 50000 kPa	810.5
313.15 K, 55000 kPa	813.4
313.15 K, 60000 kPa	816.2
318.15 K, 100 kPa	767.7
318.15 K, 1000 kPa	768.5
318.15 K, 5000 kPa	772.3
318.15 K, 10000 kPa	776.8
318.15 K, 15000 kPa	781.2
318.15 K, 20000 kPa	785.4
318.15 K, 25000 kPa	789.4
318.15 K, 30000 kPa	793.2
318.15 K, 35000 kPa	796.9
318.15 K, 40000 kPa	800.4
318.15 K, 45000 kPa	803.8
318.15 K, 50000 kPa	806.9
318.15 K, 55000 kPa	809.9
318.15 K, 60000 kPa	812.8
323.15 K, 100 kPa	763.2
323.15 K, 101 kPa	763.22
323.15 K, 1000 kPa	764.1
323.15 K, 5000 kPa	768
323.15 K, 10000 kPa	772.6
323.15 K, 15000 kPa	777.1
323.15 K, 20000 kPa	781.4
323.15 K, 25000 kPa	785.5
323.15 K, 30000 kPa	789.4
323.15 K, 35000 kPa	793.2
323.15 K, 40000 kPa	796.8
323.15 K, 45000 kPa	800.2
323.15 K, 50000 kPa	803.4
323.15 K, 55000 kPa	806.5
323.15 K, 60000 kPa	809.3
328.15 K, 100 kPa	758.7
328.15 K, 1000 kPa	759.6
328.15 K, 5000 kPa	763.6
328.15 K, 10000 kPa	768.3
328.15 K, 15000 kPa	772.9
328.15 K, 20000 kPa	777.3
328.15 K, 25000 kPa	781.6
328.15 K, 30000 kPa	785.6
328.15 K, 35000 kPa	789.5
328.15 K, 40000 kPa	793.1
328.15 K, 45000 kPa	796.6
328.15 K, 50000 kPa	799.9
328.15 K, 55000 kPa	803
328.15 K, 60000 kPa	805.9
333.15 K, 100 kPa	754.1
333.15 K, 1000 kPa	755
333.15 K, 5000 kPa	759.1
333.15 K, 10000 kPa	764
333.15 K, 15000 kPa	768.8
333.15 K, 20000 kPa	773.3
333.15 K, 25000 kPa	777.6
333.15 K, 30000 kPa	781.7
333.15 K, 35000 kPa	785.7
333.15 K, 40000 kPa	789.4
333.15 K, 45000 kPa	792.9
333.15 K, 50000 kPa	796.3
333.15 K, 55000 kPa	799.4
333.15 K, 60000 kPa	802.4
343.15 K, 100 kPa	744.6
343.15 K, 1000 kPa	745.6
343.15 K, 5000 kPa	750
343.15 K, 10000 kPa	755.2
343.15 K, 15000 kPa	760.2
343.15 K, 20000 kPa	765
343.15 K, 25000 kPa	769.6
343.15 K, 30000 kPa	773.9
343.15 K, 35000 kPa	778
343.15 K, 40000 kPa	781.9
343.15 K, 45000 kPa	785.6
343.15 K, 50000 kPa	789.1
343.15 K, 55000 kPa	792.3
343.15 K, 60000 kPa	795.3
353.15 K, 1000 kPa	736
353.15 K, 5000 kPa	740.6
353.15 K, 10000 kPa	746.2
353.15 K, 15000 kPa	751.5
353.15 K, 20000 kPa	756.5
353.15 K, 25000 kPa	761.3
353.15 K, 30000 kPa	765.9
353.15 K, 35000 kPa	770.2
353.15 K, 40000 kPa	774.3
353.15 K, 45000 kPa	778.1
353.15 K, 50000 kPa	781.7
353.15 K, 55000 kPa	785.1
353.15 K, 60000 kPa	788.2
363.15 K, 1000 kPa	725.9
363.15 K, 5000 kPa	730.8
363.15 K, 10000 kPa	736.7
363.15 K, 15000 kPa	742.4
363.15 K, 20000 kPa	747.7
363.15 K, 25000 kPa	752.8
363.15 K, 30000 kPa	757.7
363.15 K, 35000 kPa	762.2
363.15 K, 40000 kPa	766.5
363.15 K, 45000 kPa	770.5
363.15 K, 50000 kPa	774.3
363.15 K, 55000 kPa	777.7
363.15 K, 60000 kPa	780.9
373.15 K, 1000 kPa	715.3
373.15 K, 5000 kPa	720.6
373.15 K, 10000 kPa	727
373.15 K, 15000 kPa	733
373.15 K, 20000 kPa	738.7
373.15 K, 25000 kPa	744.2
373.15 K, 30000 kPa	749.3
373.15 K, 35000 kPa	754.1
373.15 K, 40000 kPa	758.6
373.15 K, 45000 kPa	762.8
373.15 K, 50000 kPa	766.7
373.15 K, 55000 kPa	770.2
373.15 K, 60000 kPa	773.5
393.15 K, 1000 kPa	692.2
393.15 K, 5000 kPa	698.4
393.15 K, 10000 kPa	705.8
393.15 K, 15000 kPa	712.8
393.15 K, 20000 kPa	719.4
393.15 K, 25000 kPa	725.6
393.15 K, 30000 kPa	731.4
393.15 K, 35000 kPa	736.8
393.15 K, 40000 kPa	741.8
393.15 K, 45000 kPa	746.4
393.15 K, 50000 kPa	750.7
393.15 K, 55000 kPa	754.5
393.15 K, 60000 kPa	757.9
413.15 K, 1000 kPa	666.3
413.15 K, 5000 kPa	673.6
413.15 K, 10000 kPa	682.3
413.15 K, 15000 kPa	690.5
413.15 K, 20000 kPa	698.1
413.15 K, 25000 kPa	705.3
413.15 K, 30000 kPa	712
413.15 K, 35000 kPa	718.2
413.15 K, 40000 kPa	723.8
413.15 K, 45000 kPa	729
413.15 K, 50000 kPa	733.7
413.15 K, 55000 kPa	737.9
413.15 K, 60000 kPa	741.5
